What was measured:
[1] = tested on: ECHORC (Watergrass (Calif.)); assay: Postemergence weed control under flooded paddy conditions; type: in vivo, Echinochloa oryzoides; conditions: postemergence weeds, 3-4 weeks after treatment
Method in brief: (§1)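 Flood-water application, about 0.0313–0.500 kg/ha a.i. in aqueous/acetone 50/50 v/v; water depth 1.5–3 cm throughout. Weeds 3–5 cm, rice 1.5–2.5 leaf. Greenhouse; 0–9 visual rating vs control at 3–4 wk.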

ORYSAT (Rice, Tebonnet) = assay: Preemergence herbicidal evaluation; type: in vivo, Oryza sativa, (L.) Tebonnet; conditions: rated 4-5 weeks after treatment
Method in brief: (§2)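 Sown cups got a single aqueous acetone spray of test compound (roughly 0.0156–0.500 kg/ha) before seedlings emerged. Evaluation, 4–5 weeks on, used a 0–9 visual scale covering plant stand, vigor, size, malformation, chlorosis and general appearance compared with controls.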

CYPSE (Flatsedge) = assay: Preemergence weed control under flooded paddy conditions; type: in vivo, Cyperus serotinus; conditions: rated 3-4 weeks after treatment
Method in brief: (§3)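 First, seeds or propagules go into the top 0.5 cm of silt loam; next, water is held 1.5 to 3 cm over the soil; then compound (50/50 acetone/water) is pipetted into it at about 0.0313 to 0.500 kg/ha; finally plants are rated visually 0-9 after three to four weeks.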

[2] = tested on: TRZAWR (Wheat, Winter, cv Riband); assay: Postemergence herbicidal evaluation; type: in vivo, Triticum aestivum
Method in brief: (§4)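 Herbicidal effect was judged by eye on a 0–9 scale covering stand, vigor, deformity, size and chlorosis, compared with controls, four to five weeks after seedlings about two weeks old were sprayed (40 psi, ~0.0156–0.500 kg/ha).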

[3] = tested on: SAGPY (Arrowhead (Pygmaea)); assay: Preemergence weed control under flooded paddy conditions; type: in vivo, Sagittaria pygmaea; conditions: rated 3-4 weeks after treatment
Method in brief: as §3

[4] = tested on: GLXMAW (Soybean, Williams); assay: Postemergence herbicidal evaluation; type: in vivo, Glycine max, (L.) Merr. cv Williams
Method in brief: as §4

[5] = tested on: ECHORC (Watergrass (Calif.)); assay: Preemergence weed control under flooded paddy conditions; type: in vivo, Echinochloa oryzoides; conditions: rated 3-4 weeks after treatment
Method in brief: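 Visual injury scored 0-9 against control three to four weeks post-treatment, greenhouse-grown. Application: acetone/water (50/50) solutions dosed directly into flood water (1.5-3 cm over silt loam, planted top 0.5 cm), roughly 0.0313 to 0.500 kg/ha active ingredient.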

CASOB (Sicklepod) = assay: Postemergence herbicidal evaluation; type: in vivo, Cassia obtusifolia
Method in brief: as §4

SETVI (Foxtail, Green) = assay: Preemergence herbicidal evaluation; type: in vivo, Setaria viridis; conditions: rated 4-5 weeks after treatment
Method in brief: as §2

AMBEL (Ragweed, Common) = assay: Postemergence herbicidal evaluation; type: in vivo, Ambrosia artemisifolia
Method in brief: as §4

GALAP (Galium) [6] = assay: Preemergence herbicidal evaluation; type: in vivo, Galium aparine; conditions: rated 4-5 weeks after treatment
Method in brief: as §2

[7] = tested on: SAGPY (Arrowhead (Pygmaea)); assay: Postemergence weed control under flooded paddy conditions; type: in vivo, Sagittaria pygmaea; conditions: postemergence weeds, 3-4 weeks after treatment
Method in brief: as §1

GALAP (Galium) [8] = assay: Postemergence herbicidal evaluation; type: in vivo, Galium aparine
Method in brief: as §4

CCOC(=O)CN1C(=O)C(CC(=O)O)SC1=Nc1cc(-n2c(=O)cc(C(F)(F)F)n(C)c2=O)c(Cl)cc1Cl (centres unmarked) [Compound 33, 2-{{2,4-Dichloro-5-[3,6-dihydro-3-methyl-2,6-dioxo-4-(trifluoromethyl)-1(2H)-pyrimidinyl]phenyl}-imino}-4-oxo-3,5-thiazolidinediacetic acid, 3-ethyl ester]
Herbicidal rating ECHORC ([1]; rate 0.2500 kg/ha): 0.0
Preemergence herbicidal rating ORYSAT (ORYSAT (Rice, Tebonnet); rate 0.0156 kg/ha): 0.0
Preemergence herbicidal rating ORYSAT (ORYSAT (Rice, Tebonnet); rate 0.0313 kg/ha): 0.0
Preemergence herbicidal rating ORYSAT (ORYSAT (Rice, Tebonnet); rate 0.0625 kg/ha): 0.0
Preemergence herbicidal rating ORYSAT (ORYSAT (Rice, Tebonnet); rate 0.1250 kg/ha): 0.0
Preemergence herbicidal rating ORYSAT (ORYSAT (Rice, Tebonnet); rate 0.2500 kg/ha): 0.0
Herbicidal rating CYPSE (CYPSE (Flatsedge); 0.2500 kg/ha): 0.0
Postemergence herbicidal rating TRZAWR ([2]; Rate 0.0158 kg/ha): 3.5
Postemergence herbicidal rating TRZAWR ([2]; Rate 0.0315 kg/ha): 5.5
Postemergence herbicidal rating TRZAWR ([2]; Rate 0.0630 kg/ha): 6.0
Herbicidal rating SAGPY ([3]; 0.2500 kg/ha): 0.0
Postemergence herbicidal rating GLXMAW ([4]; Rate 0.0158 kg/ha): 7.0
Postemergence herbicidal rating GLXMAW ([4]; Rate 0.0315 kg/ha): 8.5
Postemergence herbicidal rating GLXMAW ([4]; Rate 0.0630 kg/ha): 8.5
Herbicidal rating ECHORC ([5]; 0.2500 kg/ha): 0.0
Postemergence herbicidal rating CASOB (CASOB (Sicklepod); Rate 0.0158 kg/ha): 0.0
Postemergence herbicidal rating CASOB (CASOB (Sicklepod); Rate 0.0315 kg/ha): 1.0
Postemergence herbicidal rating CASOB (CASOB (Sicklepod); Rate 0.0630 kg/ha): 5.0
Preemergence herbicidal rating SETVI (SETVI (Foxtail, Green); rate 0.0156 kg/ha): 0.0
Preemergence herbicidal rating SETVI (SETVI (Foxtail, Green); rate 0.0313 kg/ha): 0.0
Preemergence herbicidal rating SETVI (SETVI (Foxtail, Green); rate 0.0625 kg/ha): 3.0
Preemergence herbicidal rating SETVI (SETVI (Foxtail, Green); rate 0.1250 kg/ha): 3.0
Preemergence herbicidal rating SETVI (SETVI (Foxtail, Green); rate 0.2500 kg/ha): 9.0
Postemergence herbicidal rating AMBEL (AMBEL (Ragweed, Common); Rate 0.0158 kg/ha): 9.0
Postemergence herbicidal rating AMBEL (AMBEL (Ragweed, Common); Rate 0.0315 kg/ha): 9.0
Postemergence herbicidal rating AMBEL (AMBEL (Ragweed, Common); Rate 0.0630 kg/ha): 9.0
Preemergence herbicidal rating GALAP (GALAP (Galium) [6]; rate 0.0156 kg/ha): 0.0
Preemergence herbicidal rating GALAP (GALAP (Galium) [6]; rate 0.0313 kg/ha): 0.0
Preemergence herbicidal rating GALAP (GALAP (Galium) [6]; rate 0.0625 kg/ha): 0.0
Herbicidal rating SAGPY ([7]; rate 0.2500 kg/ha): 0.0
Postemergence herbicidal rating GALAP (GALAP (Galium) [8]; Rate 0.0158 kg/ha): 3.0
Postemergence herbicidal rating GALAP (GALAP (Galium) [8]; Rate 0.0315 kg/ha): 4.0
Postemergence herbicidal rating GALAP (GALAP (Galium) [8]; Rate 0.0630 kg/ha): 5.0

CCOC(=O)CN1CC(=O)N(CC(=O)OCC)C1=Nc1cc(-n2c(=O)cc(C(F)(F)F)n(C)c2=O)c(F)cc1Cl [Compound 34, 2-{{2-Chloro-5-[3,6-dihydro-3-methyl-2,6-dioxo-4-(trifluoromethyl)-1(2H)-pyrimidinyl]-4-fluoro-phenyl}imino}-4-oxo-1,3-imidazolidinediacetic acid, diethyl ester]
Herbicidal rating ECHORC ([1]; rate 0.0313 kg/ha): 3.0
Herbicidal rating ECHORC ([1]; rate 0.0625 kg/ha): 4.0
Herbicidal rating ECHORC ([1]; rate 0.1250 kg/ha): 4.0
Herbicidal rating ECHORC ([1]; rate 0.2500 kg/ha): 9.0
Preemergence herbicidal rating ORYSAT (ORYSAT (Rice, Tebonnet); rate 0.0313 kg/ha): 0.0
Preemergence herbicidal rating ORYSAT (ORYSAT (Rice, Tebonnet); rate 0.0625 kg/ha): 0.0
Preemergence herbicidal rating ORYSAT (ORYSAT (Rice, Tebonnet); rate 0.1250 kg/ha): 2.0
Preemergence herbicidal rating ORYSAT (ORYSAT (Rice, Tebonnet); rate 0.2500 kg/ha): 5.0
Herbicidal rating CYPSE (CYPSE (Flatsedge); 0.0313 kg/ha): 0.0
Herbicidal rating CYPSE (CYPSE (Flatsedge); 0.0625 kg/ha): 0.0
Herbicidal rating CYPSE (CYPSE (Flatsedge); 0.1250 kg/ha): 0.0
Herbicidal rating CYPSE (CYPSE (Flatsedge); 0.2500 kg/ha): 0.0
Postemergence herbicidal rating TRZAWR ([2]; Rate 0.0158 kg/ha): 4.0
Postemergence herbicidal rating TRZAWR ([2]; Rate 0.0315 kg/ha): 4.0
Postemergence herbicidal rating TRZAWR ([2]; Rate 0.0630 kg/ha): 5.0
Herbicidal rating SAGPY ([3]; 0.0313 kg/ha): 0.0
Herbicidal rating SAGPY ([3]; 0.0625 kg/ha): 0.0
Herbicidal rating SAGPY ([3]; 0.1250 kg/ha): 0.0
Herbicidal rating SAGPY ([3]; 0.2500 kg/ha): 0.0
Postemergence herbicidal rating GLXMAW ([4]; Rate 0.0158 kg/ha): 7.0
Postemergence herbicidal rating GLXMAW ([4]; Rate 0.0315 kg/ha): 7.0
Postemergence herbicidal rating GLXMAW ([4]; Rate 0.0630 kg/ha): 7.0
Herbicidal rating ECHORC ([5]; 0.0313 kg/ha): 3.0
Herbicidal rating ECHORC ([5]; 0.0625 kg/ha): 4.0
Herbicidal rating ECHORC ([5]; 0.1250 kg/ha): 4.0
Herbicidal rating ECHORC ([5]; 0.2500 kg/ha): 9.0
Postemergence herbicidal rating CASOB (CASOB (Sicklepod); Rate 0.0158 kg/ha): 0.0
Postemergence herbicidal rating CASOB (CASOB (Sicklepod); Rate 0.0315 kg/ha): 0.0
Postemergence herbicidal rating CASOB (CASOB (Sicklepod); Rate 0.0630 kg/ha): 0.0
Preemergence herbicidal rating SETVI (SETVI (Foxtail, Green); rate 0.0313 kg/ha): 3.0
Preemergence herbicidal rating SETVI (SETVI (Foxtail, Green); rate 0.0625 kg/ha): 9.0
Preemergence herbicidal rating SETVI (SETVI (Foxtail, Green); rate 0.1250 kg/ha): 9.0
Preemergence herbicidal rating SETVI (SETVI (Foxtail, Green); rate 0.2500 kg/ha): 9.0
Postemergence herbicidal rating AMBEL (AMBEL (Ragweed, Common); Rate 0.0158 kg/ha): 9.0
Postemergence herbicidal rating AMBEL (AMBEL (Ragweed, Common); Rate 0.0315 kg/ha): 9.0
Postemergence herbicidal rating AMBEL (AMBEL (Ragweed, Common); Rate 0.0630 kg/ha): 9.0
Preemergence herbicidal rating GALAP (GALAP (Galium) [6]; rate 0.0313 kg/ha): 0.0
Preemergence herbicidal rating GALAP (GALAP (Galium) [6]; rate 0.0625 kg/ha): 7.0
Preemergence herbicidal rating GALAP (GALAP (Galium) [6]; rate 0.1250 kg/ha): 7.0
Preemergence herbicidal rating GALAP (GALAP (Galium) [6]; rate 0.2500 kg/ha): 9.0
Herbicidal rating SAGPY ([7]; rate 0.0313 kg/ha): 0.0
Herbicidal rating SAGPY ([7]; rate 0.0625 kg/ha): 0.0
Herbicidal rating SAGPY ([7]; rate 0.1250 kg/ha): 0.0
Herbicidal rating SAGPY ([7]; rate 0.2500 kg/ha): 0.0
Postemergence herbicidal rating GALAP (GALAP (Galium) [8]; Rate 0.0158 kg/ha): 4.0
Postemergence herbicidal rating GALAP (GALAP (Galium) [8]; Rate 0.0315 kg/ha): 9.0
Postemergence herbicidal rating GALAP (GALAP (Galium) [8]; Rate 0.0630 kg/ha): 6.0

Reference: patent publication US20020137929A1, “1 - (3-heterocyclylphenyl) isothiourea, -isourea, -guanidine and -amidine herbicidal agents” (Intellectual Property Department, BASF Aktiengesellschaft, priority 1998, published 2002)
